Laboratory results from patent US20240082347A1, “TREATMENT OF CORONAVIRUS” (priority 2021, published 2024).
“Also recorded” adds a separate entry of the source.

Key:
[1] = tested on: SARS-CoV-2 binding to Human Aortic Endothelial Cells (HAoEC); format: cell-based
[2] = molecular target: T1, Recombinant integrin αVβ3 (binding of SARS-CoV-2 spike protein) (Homo sapiens, UniProt P05106+P06756); assay: Fluorescent-based protein interaction assay, spike protein and αVβ3; details: FIG. 8
T1 construct: purchased BioTechne 3050-AV-050
T1 sequence (P06756 31-992 limits assumed): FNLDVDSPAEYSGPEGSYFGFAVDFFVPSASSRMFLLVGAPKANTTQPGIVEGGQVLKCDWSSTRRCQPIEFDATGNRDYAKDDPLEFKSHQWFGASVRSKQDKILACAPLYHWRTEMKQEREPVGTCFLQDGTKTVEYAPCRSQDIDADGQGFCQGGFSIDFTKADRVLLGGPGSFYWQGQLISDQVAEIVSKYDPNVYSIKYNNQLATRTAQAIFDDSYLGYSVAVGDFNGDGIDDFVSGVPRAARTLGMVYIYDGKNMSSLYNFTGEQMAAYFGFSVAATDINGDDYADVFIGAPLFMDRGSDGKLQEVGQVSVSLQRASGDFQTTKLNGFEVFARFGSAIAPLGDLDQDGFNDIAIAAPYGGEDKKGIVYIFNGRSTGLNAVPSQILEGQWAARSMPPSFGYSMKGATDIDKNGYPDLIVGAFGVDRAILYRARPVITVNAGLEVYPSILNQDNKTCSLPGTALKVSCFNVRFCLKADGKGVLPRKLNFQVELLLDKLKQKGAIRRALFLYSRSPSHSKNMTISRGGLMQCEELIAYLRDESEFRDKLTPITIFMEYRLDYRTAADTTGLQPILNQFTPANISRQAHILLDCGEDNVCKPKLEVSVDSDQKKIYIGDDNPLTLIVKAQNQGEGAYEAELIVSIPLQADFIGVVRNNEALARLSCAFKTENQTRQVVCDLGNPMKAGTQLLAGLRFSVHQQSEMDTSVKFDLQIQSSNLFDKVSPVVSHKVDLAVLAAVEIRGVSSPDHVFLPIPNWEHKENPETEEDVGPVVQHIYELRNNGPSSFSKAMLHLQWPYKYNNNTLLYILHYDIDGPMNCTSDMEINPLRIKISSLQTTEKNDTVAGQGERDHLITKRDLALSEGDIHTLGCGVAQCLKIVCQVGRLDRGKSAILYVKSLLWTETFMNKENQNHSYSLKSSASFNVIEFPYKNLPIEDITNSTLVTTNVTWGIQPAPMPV
T1 sequence (P05106 27-718 limits assumed): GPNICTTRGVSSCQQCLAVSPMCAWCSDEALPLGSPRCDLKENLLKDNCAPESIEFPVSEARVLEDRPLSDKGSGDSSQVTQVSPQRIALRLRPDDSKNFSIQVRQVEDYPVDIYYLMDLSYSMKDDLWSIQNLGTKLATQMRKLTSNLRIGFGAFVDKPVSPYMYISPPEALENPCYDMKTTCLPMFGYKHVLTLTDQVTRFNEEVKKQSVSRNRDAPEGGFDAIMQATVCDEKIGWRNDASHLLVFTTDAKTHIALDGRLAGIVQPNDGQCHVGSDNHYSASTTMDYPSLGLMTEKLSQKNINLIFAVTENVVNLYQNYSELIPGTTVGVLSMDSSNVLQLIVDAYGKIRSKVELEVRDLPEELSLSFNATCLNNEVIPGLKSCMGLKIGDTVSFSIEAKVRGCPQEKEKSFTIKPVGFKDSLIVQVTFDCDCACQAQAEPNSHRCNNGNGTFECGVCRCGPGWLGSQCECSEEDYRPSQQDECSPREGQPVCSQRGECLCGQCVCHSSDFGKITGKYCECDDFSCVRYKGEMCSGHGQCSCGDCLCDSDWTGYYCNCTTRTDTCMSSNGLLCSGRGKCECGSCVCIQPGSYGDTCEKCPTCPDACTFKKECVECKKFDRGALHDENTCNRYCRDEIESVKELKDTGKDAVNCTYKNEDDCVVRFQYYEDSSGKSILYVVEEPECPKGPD

[3] = tested on: sheared HAoEC; assay: Transwell permeability assay (FITC-Dextran) after SARS-CoV-2 infection; format: cell-based, human; details: 0.0005 μM; SARS-CoV-2 infection 24 hours; FIG. 5A
[4] = tested on: VE-Cadherin expression on sheared HAoEC; format: cell-based, human; details: 0.0005 μM
[5] = tested on: VE-Cadherin in endothelial cells; assay: SDS-PAGE and Western blot of VE-Cadherin after ex vivo infection assay; format: cell-based, human; details: healthy, infected and treated cells; 0.0005 μM
Experimental: Following the ex vivo infection assay, endothelial cells were lysed in RIPA buffer and stored at −20° C. until use. Samples were separated on a 10% SDS-PAGE gel. Following this, proteins were transferred onto a nitrocellulose membrane and blocked for 1 hour using 5% skimmed milk. The membrane was probed using anti-VE Cadherin primary antibody (Clone: F-8, Cat. No: sc-9989, 1:200, SantaCruz) and anti-GAPDH primary antibody (6000-4-1 mouse mAB, 1:2000, ProteinTech), overnight at 4° C. Anti-mouse IgG secondary antibodies (sc525405, 1:5000, SantaCruz) were used the following day. Proteins were detected using chemiluminescence.

[6] = tested on: SARS-CoV-2 binding to human colorectal epithelial cells (Caco-2); format: cell-based

Compound	viral (SARS-CoV-2) attachment to human vascular endothelial cells [1]	recombinant spike protein binding to integrin αVβ3, comparison of GLPG0187 with Cilengitide [2]	SARS-CoV-2 binding to endothelial cells, dose response [1]	virus (SARS-CoV-2) attachment to human vascular endothelial cells [1]	endothelial barrier permeability (FITC-Dextran, 40 kDa) [3]	VE-Cadherin surface expression (mean fluorescence), marker of barrier integrity [4]	internalisation of VE-Cadherin following SARS-CoV-2 infection [4]	Total VE-Cadherin [5]	SARS-CoV-2 binding to human colorectal epithelial cells [6]
COc1ccc(S(=O)(=O)N[C@@H](CNc2nc(C)nc(N3CCC(c4ccc5c(n4)NCCC5)CC3)c2C)C(=O)O)cc1 [GLPG0187]	failed to inhibit viral (SARS-CoV-2) attachment to human vascular endothelial cells	Cilengitide is significantly more effective							
CC(C)[C@H]1C(=O)N[C@@H](CCCN=C(N)N)C(=O)NCC(=O)N[C@@H](CC(=O)O)C(=O)N[C@H](Cc2ccccc2)C(=O)N1C [Cilengitide, cyclo(-RGDf(NMe)V-)]			in a dose-dependent manner; also recorded: significantly prevents both attachment to the host and disruption of barrier integrity; also recorded: Statistical significance was found between the no drug control and each Cilengitide treated group	dose dependently inhibits virus (SARS-CoV-2) attachment to human vascular endothelial cells	limited the occurrence of barrier permeability; also recorded: restored after treating cells with Cilengitide	prevented VE-cadherin reduction during infection; also recorded: returning VE-cadherin levels back to uninfected levels; also recorded: re-established the barrier integrity; also recorded: barrier permeability was restored back to uninfected levels	internalisation of VE-Cadherin is prevented	Total VE-Cadherin remains consistent	effectively reduces SARS-CoV-2 binding to human colorectal epithelial cells
CNc1cccc(CCOc2ccc3c(c2)CN(CC(F)(F)F)C(=O)[C@H](CC(=O)O)C3)n1 [SB-273005]	failed to inhibit viral (SARS-CoV-2) attachment to human vascular endothelial cells; also recorded: unsuccessful at reducing SARS-CoV-2 binding to human endothelial cells								
